This is an account of results in article PMC4060151 (Chemistry & biology, 2014).

In experiment [1] the test system is stationary M. tuberculosis mc^26020. The experiment can be described thus: Time-dependent killing, stationary cells. The conditions noted are these: 10 ×MIC; average of three biological replicates (Fig. 3B). The experiment is classed as cell-based.
Experiment [2] deals with cell wall biosynthesis. The conditions noted are these: ref Iwatsuki et al., 2006; cited from earlier work.
Experiment [3] relates to ClpC1. The following applies: cited from earlier work.

In the case of `CO[C@H]1/C=C/O[C@@]2(C)Oc3c(C)c(O)c4c(O)c(c(/C=N/N5CCN(C)CC5)c(O)c4c3C2=O)NC(=O)/C(C)=C\C=C\[C@H](C)[C@H](O)[C@@H](C)[C@@H](O)[C@@H](C)[C@H](OC(C)=O)[C@@H]1C` [rifampicin], the “killing of stationary phase cells” value in experiment [1] was “characteristic biphasic killing (Fig. 3B) and a significant number of persister cells survive exposure”.
On to Lariatin A, for which the mechanism of action result in experiment [2] is “inhibits cell wall biosynthesis”.
Consider cyclomarin A, for which, in experiment [3], the “binding to ClpC1” value is given as “binds to ClpC1” and the effect on proteolysis result is “proposed to cause excessive proteolysis”.
